{
  "source": "patent US11866420B2",
  "about": "“Hydrochloride salt forms of a sulfonamide structured kinase inhibitor” (Aurigene Oncology Limited, priority 2018, dated 2024)",
  "key": {"[1]": {"experiment": "Water solubility", "type": "physicochemical", "settings": "physiological pH range"}, "[2]": {"experiment": "Bioavailability after oral administration", "type": "in vivo"}, "[3]": {"experiment": "Hygroscopicity (Dynamic Vapour Sorption)", "type": "physicochemical", "settings": "between 20%-90% RH, T=25° C., DVS mass change", "experimental": "The hygroscopicity of the crystalline forms 1, 3, 5 and 8 was evaluated using DVS-1 Dynamic Vapour Sorption equipment (Surface Measurement Systems Ltd, London, UK). The amount of 5-10 mg of each crystalline form was equilibrated at 20% RH. The mass change (%) was recorded at 30%, 40%, 50%, 60%, 70%, 80% and 90% RH at T=25° C. The equilibration condition at each point was dm/dt≤0.0003."}, "[4]": {"experiment": "Stability of the crystalline forms in different water activity conditions (slurry experiments)", "type": "physicochemical", "settings": "for Resulting crystalline form: HCl added; for Water activity conditions under which the crystalline form is favoured: water/methanol slurries with HCl, room temperature, 3 days", "source_text": "Stability of the crystalline forms in different water activity conditions was studied in slurry experiments where crystalline forms 1 and 3 were stirred for 3 days at room temperature in mixtures of water and methanol in the presence of HCl to maintain acidic conditions."}, "[5]": {"experiment": "Thermogravimetric analysis (TGA), onset of disproportionation", "type": "physicochemical", "settings": "for Onset temperature of disproportionation: TGA with head space mass spectroscopy, start of rapid evaporation of Cl ion", "experimental": "The TGA thermograms for the crystalline forms 1, 3, 5 and 8 were collected on TGA equipment (TA Instruments). The gases recovered during each run were analyzed by head space mass spectroscopy (Agilent GS system). The measurement allowed to register the temperature at which rapid evaporation of Cl ion (disproportionation) started.\nThe onset temperature of disproportionation for crystalline forms 1, 3, 5 and 8 was determined based on TGA measurements."}, "[6]": {"experiment": "Long-term stability of forms 3 and 8 at different storage conditions", "type": "physicochemical", "experimental": "Long-term stability of crystalline forms 3 and 8 at different storage conditions was studied. The conditions were a) 25° C./RH 60% in a closed vessel, b) 40° C./RH 75% in a closed vessel, c) 40° C./RH 75% in an open vessel and d) 25° C./RH 100% in an open vessel."}},
  "note": "Structures can show the parent of a compound that is named as a salt.",
  "data": [
    {"smiles": "Cn1cc(-c2ccc3c(c2)ncn3-c2cc(NS(=O)(=O)C3CC3)cc(-c3ccc(F)cc3F)c2)cn1", "note": "[Compound (I), N-(2′,4′-difluoro-5-(5-(1-methyl-1H-pyrazol-4-yl)-1H-benzo[d]imidazol-1-yl)-[1,1′-biphenyl]-3-yl)cyclopropanesulfonamide]", "values": [
      {"measurement": "Solubility in water", "setting": "[1]", "result": "practically insoluble"},
      {"measurement": "Bioavailability after oral administration", "setting": "[2]", "result": "very low"}
    ]},
    {"smiles": "Cn1cc(-c2ccc3c(c2)ncn3-c2cc(NS(=O)(=O)C3CC3)cc(-c3ccc(F)cc3F)c2)cn1", "note": "[Form 1, N-(2′,4′-difluoro-5-(5-(1-methyl-1H-pyrazol-4-yl)-1H-benzo[d]imidazol-1-yl)-[1,1′-biphenyl]-3-yl)cyclopropanesulfonamide hydrochloride]", "values": [
      {"measurement": "Hygroscopicity", "setting": "[3]; hydrochloride", "result": "particularly low hygroscopicity"},
      {"measurement": "Resulting crystalline form", "setting": "[4]; 16% H2O in MeOH, water activity 0.44, slurry 3 days at room temperature", "result": "Form 3 + Form 8"},
      {"measurement": "Resulting crystalline form", "setting": "[4]; 26.6% H2O in MeOH, water activity 0.59, slurry 3 days at room temperature", "result": "Form 3 + Form 8"},
      {"measurement": "Resulting crystalline form", "setting": "[4]; 45.2% H2O in MeOH, water activity 0.75, slurry 3 days at room temperature", "result": "Form 8"},
      {"measurement": "Resulting crystalline form", "setting": "[4]; 71.5% H2O in MeOH, water activity 0.88, slurry 3 days at room temperature", "result": "Form 5"},
      {"measurement": "Onset temperature of disproportionation", "setting": "[5]; listed as 1, hydrochloride", "result": 148, "unit": "°C"}
    ]},
    {"smiles": "Cn1cc(-c2ccc3c(c2)ncn3-c2cc(NS(=O)(=O)C3CC3)cc(-c3ccc(F)cc3F)c2)cn1", "note": "[Form 3, N-(2′,4′-difluoro-5-(5-(1-methyl-1H-pyrazol-4-yl)-1H-benzo[d]imidazol-1-yl)-[1,1′-biphenyl]-3-yl)cyclopropanesulfonamide hydrochloride]", "values": [
      {"measurement": "Long-term stability: stable up to", "setting": "[6]; 25° C./RH 60% closed vessel, listed as Crystalline form 3, hydrochloride", "result": "Stable up to 36 months"},
      {"measurement": "Long-term stability: time after which form changed", "setting": "[6]; 25° C./RH 100% open vessel", "result": 1, "unit": "week"},
      {"measurement": "Long-term stability: change of crystalline form", "setting": "[6]; 25° C./RH 100% open vessel, hydrochloride", "result": 5},
      {"measurement": "Long-term stability: change of crystalline form", "setting": "[6]; 25° C./RH 100% open vessel, listed as Crystalline form 3, hydrochloride", "result": "Change to form 5 after"},
      {"measurement": "Long-term stability: stable up to", "setting": "[6]; 40° C./RH 75% closed vessel, listed as Crystalline form 3, hydrochloride", "result": "Stable up to 12 months"},
      {"measurement": "Long-term stability: time after which form changed", "setting": "[6]; 40° C./RH 75% open vessel", "result": 1, "unit": "days"},
      {"measurement": "Long-term stability: change of crystalline form", "setting": "[6]; 40° C./RH 75% open vessel, hydrochloride", "result": "changes to form 8"},
      {"measurement": "Long-term stability: change of crystalline form", "setting": "[6]; 40° C./RH 75% open vessel, listed as Crystalline form 3, hydrochloride", "result": "Change to form 8 after"},
      {"measurement": "Resulting crystalline form", "setting": "[4]; 4.7% H2O in MeOH, water activity 0.17, slurry 3 days at room temperature", "result": "Form 3"},
      {"measurement": "Resulting crystalline form", "setting": "[4]; 10% H2O in MeOH, water activity 0.31, slurry 3 days at room temperature", "result": "Form 3"},
      {"measurement": "Resulting crystalline form", "setting": "[4]; MeOH, water activity 0, slurry stirred 3 days at room temperature", "result": "Form 3"},
      {"measurement": "Water activity conditions under which the crystalline form is favoured", "setting": "[4]; listed as crystalline form 3, hydrochloride", "result": "ambient to about 0.3"},
      {"measurement": "Onset temperature of disproportionation", "setting": "[5]; listed as 3, hydrochloride", "result": 171, "unit": "°C"}
    ]},
    {"smiles": "Cn1cc(-c2ccc3c(c2)ncn3-c2cc(NS(=O)(=O)C3CC3)cc(-c3ccc(F)cc3F)c2)cn1", "note": "[Form 5, N-(2′,4′-difluoro-5-(5-(1-methyl-1H-pyrazol-4-yl)-1H-benzo[d]imidazol-1-yl)-[1,1′-biphenyl]-3-yl)cyclopropanesulfonamide hydrochloride]", "values": [
      {"measurement": "Water activity conditions under which the crystalline form is favoured", "setting": "[4]; listed as crystalline form 5, hydrochloride", "result": "about 0.9"},
      {"measurement": "Onset temperature of disproportionation", "setting": "[5]; listed as 5, hydrochloride", "result": 145, "unit": "°C"}
    ]},
    {"smiles": "Cn1cc(-c2ccc3c(c2)ncn3-c2cc(NS(=O)(=O)C3CC3)cc(-c3ccc(F)cc3F)c2)cn1", "note": "[Form 8, N-(2′,4′-difluoro-5-(5-(1-methyl-1H-pyrazol-4-yl)-1H-benzo[d]imidazol-1-yl)-[1,1′-biphenyl]-3-yl)cyclopropanesulfonamide hydrochloride]", "values": [
      {"measurement": "Long-term stability: stable up to", "setting": "[6]; 25° C./RH 60% closed vessel, listed as Crystalline form 8, hydrochloride", "result": "≥ 36", "unit": "months"},
      {"measurement": "Long-term stability: stable up to", "setting": "[6]; 25° C./RH 100% open vessel", "result": "≥ 2", "unit": "months"},
      {"measurement": "Long-term stability: stable up to", "setting": "[6]; 40° C./RH 75% closed vessel, listed as Crystalline form 8, hydrochloride", "result": "≥ 6", "unit": "months"},
      {"measurement": "Long-term stability: stable up to", "setting": "[6]; 40° C./RH 75% open vessel", "result": "≥ 1", "unit": "month"},
      {"measurement": "Stability at storage conditions (overall)", "setting": "[6]; all storage conditions (25° C./RH 60%, 40° C./RH 75% closed and open, 25° C./RH 100% open)", "result": "good stability"},
      {"measurement": "Hygroscopicity", "setting": "[3]; listed as form 8, hydrochloride", "result": "practically non-hygroscopic"},
      {"measurement": "Onset temperature of disproportionation", "setting": "[5]; listed as 8, hydrochloride", "result": 187, "unit": "°C"},
      {"measurement": "Thermal stability against disproportionation", "setting": "[5]; TGA, compared among crystalline forms 1, 3, 5 and 8", "result": "highest thermal stability"}
    ]}
  ]
}
